Results taken from article PMC4823711, “Allosteric Partial Inhibition of Monomeric Proteases. Sulfated Coumarins Induce Regulation, not just Inhibition, of Thrombin” (Scientific Reports, 2016).

Legend:
[1] = target: T1, fluorescein-labeled (f FPRCK-) thrombin (Homo sapiens, UniProt P00734); assay: Thermodynamic affinity by fluorescence titration; assay type: binding
T1 construct: fluorescein-labeled (f FPRCK-) human thrombin; purchased Haematologic Technologies (Essex Junction, VT); host or cells: human plasma
Procedure: Affinity studies were performed in triplicate and conducted using quartz cuvettes. 180 μL of buffer (20 mM Tris-HCl, 100 mM NaCl, 2.5 mM CaCl2, 0.1% PEG 8000, pH 7.4) and 20 μL of 2 μM fluorescein-labeled (f FPRCK-) thrombin were added to the cuvette followed by titration with 1 μL additions of 3g. Fluorescence intensities were monitored by excitation at 490 nm and emission at 525 nm using slit widths of 0.5 mm. The KD of 3g–thrombin complex was calculated using the quadratic binding equation (equation 4) in which ∆F is the change in fluorescence from the formation of the thrombin-ligand complex with each addition of 3g. F0 is the initial fluorescence and ∆FMAX represents the maximum observed change in fluorescence due to thrombin saturation ([Th]0).

thrombin mutant R173A = target: T2, thrombin mutant R173A (Homo sapiens, UniProt P00734, R541A); assay: Inhibition of thrombin mutant R173A; assay type: biochemical; conditions: pH 7.4, 25 °C
T2 construct: a group of thrombin mutants containing replacement of either Arg or Lys present in exosite 2 to Ala
Procedure: (§1) Chromogenic substrate hydrolysis assay was used to measure potency of inhibition, as previously reported. The assay was performed using Flexstation III (Molecular Devices, Sunnyvale, CA) by monitoring substrate hydrolysis at 405 nm. For thrombin and its mutants, 180 μL of buffer (20 mM Tris-HCl, 100 mM NaCl, 2.5 mM CaCl2, 0.1% (polyethylene glycol) PEG 8000, pH 7.4) was added to each well followed by 5 μL of 240 nM thrombin and 10 μL of sulfated coumarin in DMSO to give 0.002 to 250 μM final concentration (or 10 μL of DMSO alone). After incubation for 10 min at 25 °C, 5 μL of 2 mM Spectrozyme TH was added to each well simultaneously and allowed to react for 60 seconds at 25 °C while simultaneously monitoring the reaction to obtain the rate of increase in A405. Identical experimental conditions were used for reactions in the presence of antithrombin, except for 100 nM of antithrombin added prior to the addition of the substrate.

[2] = target: T1, fluorescein-labeled (f FPRCK-) thrombin; assay: Iodide fluorescence quenching of f FPRCK-thrombin (Stern-Volmer)
Procedure: The quenching studies performed were done using quartz cuvettes, as described previously. 180 μL of buffer (20 mM Tris-HCl, 100 mM NaCl, 2.5 mM CaCl2, 0.1% PEG 8000, pH 7.4) and 20 μL of 2 μM fluorescein-labeled (f FPRCK-) human thrombin were added to the cuvette; fluorescent intensity readings were taken at the λEX of 490 nm and λEM of […] at 25 °C. A solution of 10 M NaI was made using buffer as the solvent. For the readings where inhibitor was absent, 1 μL increments of 10 M NaI was added directly to the cuvette after initial readings of the buffer-thrombin solution. NaI was added six times, while recording changes in fluorescent intensity each time, giving a concentration range of […] in the cuvette. For the readings where inhibitor was present, after the initial buffer-thrombin read, 1 μL of 80 μM inhibitor solution was added to the cuvette and mixed. An intensity reading was taken and then the addition of 1 μL increments of 10 M NaI was again performed six times, taking reads between each addition. The experiments were performed in triplicate and averaged. Initial fluorescence (F0) was the intensity reading from either the buffer-thrombin solution in the absence of 3g or following addition of 1 μL of 3g. […]

[3] = test system: recombinant human thrombins; assay: Inhibition of recombinant thrombins (wild type and exosite 2 mutants, summary statements); assay type: biochemical
Procedure: as §1

thrombin mutant R93A = target: T3, thrombin mutant R93A (Homo sapiens, UniProt P00734, R452A); assay: Inhibition of thrombin mutant R93A; assay type: biochemical
T3 construct: a group of thrombin mutants containing replacement of either Arg or Lys present in exosite 2 to Ala
Procedure: as §1

factor Xa = target: T4, factor Xa (Homo sapiens, UniProt P00742); assay: Chromogenic substrate hydrolysis assay, factor Xa inhibition (Spectrozyme FXa); assay type: biochemical
T4 construct: antithrombin, factor Xa and factor XIa were from Haematologic Technologies; purchased Haematologic Technologies (Essex Junction, VT); host or cells: human plasma
T4 sequence (P00742 235-488 limits assumed): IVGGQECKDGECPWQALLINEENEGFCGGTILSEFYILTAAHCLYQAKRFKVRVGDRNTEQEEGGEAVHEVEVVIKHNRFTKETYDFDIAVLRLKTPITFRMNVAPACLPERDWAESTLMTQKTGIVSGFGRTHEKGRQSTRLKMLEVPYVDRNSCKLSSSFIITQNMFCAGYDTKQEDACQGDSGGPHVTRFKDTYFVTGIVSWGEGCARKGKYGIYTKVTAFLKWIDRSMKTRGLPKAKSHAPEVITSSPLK
T4 sequence (P00742 41-179 limits assumed): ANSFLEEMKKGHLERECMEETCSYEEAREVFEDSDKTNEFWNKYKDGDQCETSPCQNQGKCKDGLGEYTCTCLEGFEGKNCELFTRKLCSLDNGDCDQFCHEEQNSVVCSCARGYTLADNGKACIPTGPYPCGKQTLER
Procedure: For factor XIa inhibition studies, 85 μL of buffer (50 mM Tris-HCl, 150 mM NaCl, 0.1% PEG 8000, 0.02% Tween 80, pH 7.4) was added to each well, followed by 7 μL of 15.3 nM enzyme and 3 μL of sulfated coumarin (3.75–500 μM final concentration) and incubated for 10 min at 37 °C. After the incubation period, 5 μL of 6.9 mM S-2366 was added to each well simultaneously and allowed to react for 300 sec at 37 °C. For factor Xa assay, 180 μL of buffer (20 mM Tris-HCl, 100 mM NaCl, 2.5 mM CaCl2, 0.1% PEG 8000, 0.02% Tween 80, pH 7.4) was added to each well followed by 5 μL of 43.5 nM enzyme, 10 μL of sulfated coumarin (0.002–250 μM final concentration). After a 10 min incubation, 5 μL of 5 mM Spectrozyme FXa was added to each well simultaneously and allowed to react for 300 seconds at 37 °C. The slopes generated from each experiment were used to calculate the fractional residual activity (Y) at each concentration of the inhibitor, and analyzed using logistic equation 1, in which YM is the maximum efficacy, Y0 is minimum efficacy and HS is the Hill slope.

thrombin mutant K235A = target: T5, thrombin mutant K235A (Homo sapiens, UniProt P00734, K610A); assay: Inhibition of thrombin mutant K235A; assay type: biochemical; conditions: pH 7.4, 25 °C
T5 construct: a group of thrombin mutants containing replacement of either Arg or Lys present in exosite 2 to Ala
Procedure: as §1

thrombin mutant R165A = target: T6, thrombin mutant R165A (Homo sapiens, UniProt P00734, R533A); assay: Inhibition of thrombin mutant R165A; assay type: biochemical; conditions: pH 7.4, 25 °C
T6 construct: a group of thrombin mutants containing replacement of either Arg or Lys present in exosite 2 to Ala
Procedure: as §1

thrombin mutant R126A = target: T7, thrombin mutant R126A (Homo sapiens, UniProt P00734, R486A); assay: Inhibition of thrombin mutant R126A; assay type: biochemical; conditions: pH 7.4, 25 °C
T7 construct: a group of thrombin mutants containing replacement of either Arg or Lys present in exosite 2 to Ala
Procedure: as §1

thrombin mutant R101A = target: T8, thrombin mutant R101A (Homo sapiens, UniProt P00734, R461A); assay: Inhibition of thrombin mutant R101A; assay type: biochemical; conditions: pH 7.4, 25 °C
T8 construct: a group of thrombin mutants containing replacement of either Arg or Lys present in exosite 2 to Ala
Procedure: as §1

ΔFMAX ([1]; loss in fluorescence at saturation): ~ 28% | Kd ([1]; pH 7.4, λEX 490 nm, λEM 525 nm, quadratic binding equation): 143 ± 14 nM | HS (thrombin mutant R173A): 2.0 | IC50 (thrombin mutant R173A): 522 ± 90 nM | ΔY (thrombin mutant R173A): 36 ± 3% | slope of iodide quenching (Stern-Volmer, KSV) ([2]; 90% saturation of thrombin, pH 7.4, 25 °C, thrombin alone 2.37 ± 0.14): 1.19 ± 0.06 M⁻¹ | reduction of iodide quenching of f FPRCK-thrombin ([2]; 90% saturation, versus thrombin alone): ~ 50% | increase of IC50 in comparison to recombinant wild-type thrombin ([3]; mutants K236A, K235A, R173A and K169A): < 1.4 fold | increase of inhibition potency in comparison to recombinant wild-type thrombin (thrombin mutant R93A; R93A mutant): 2.3 fold | HS (thrombin mutant R93A; R93A, pH 7.4, 25 °C): 1.3 | IC50 (thrombin mutant R93A; R93A, pH 7.4, 25 °C): 154 ± 20 nM | ΔY (thrombin mutant R93A; R93A, pH 7.4, 25 °C): 51 ± 2% | selectivity for thrombin in comparison to factor Xa (factor Xa): ~ 800 fold | IC50 (factor Xa; pH 7.4, 37 °C, read-out: IC50 against factor Xa): > 30000 nM | HS (thrombin mutant K235A): 1.9 | IC50 (thrombin mutant K235A): 471 ± 80 nM | ΔY (thrombin mutant K235A): 33 ± 3% | HS (thrombin mutant R165A): 4.2 | IC50 (thrombin mutant R165A): 301 ± 20 nM | ΔY (thrombin mutant R165A): 28 ± 2% | HS (thrombin mutant R126A): 3.2 | IC50 (thrombin mutant R126A): 308 ± 30 nM | ΔY (thrombin mutant R126A): 41 ± 2% | HS (thrombin mutant R101A): 2.5 | IC50 (thrombin mutant R101A): 255 ± 50 nM | ΔY (thrombin mutant R101A): 35 ± 4%
Structure (SMILES): O=c1oc2cc(OCCCCn3cc(COc4ccc(-c5c(-c6ccccc6)c6cc(Cl)cc(Cl)c6oc5=O)cc4)nn3)ccc2c(-c2ccccc2)c1-c1ccc(OS(=O)(=O)O)cc1 [3g]
maximal inhibition efficacies ([3]; range over all recombinant thrombins studied): 28 to 64%
